{
  "source": "patent US8858917B2",
  "about": "“Methods for limiting spread of pulmonary infections” (priority 2002, dated 2014)",
  "key": {"[1]": {"tested_on": "viruses susceptible to its action", "conditions": "medium containing 5% fetal calf serum (FCS); cited from earlier work"}, "HSV-1 and HSV-2 strains": {"tested_on": "HSV-1 and HSV-2 strains", "conditions": "cultured cells; cited from earlier work"}, "HIV-1 (strain NL4-3)": {"tested_on": "HIV-1 (strain NL4-3)", "conditions": "pretreatment of virus; cited from earlier work"}, "NIH 3T3 fibroblasts": {"tested_on": "NIH 3T3 fibroblasts", "conditions": "30% ethanol in 10% FBS DMEM for 10 seconds"}, "[2]": {"assay": "Dispersion / precipitation in ethanol", "assay_type": "physicochemical", "conditions": "room temperature", "protocol": "DLS can be used to measure the size and size distribution of the ethanol solutions. A suitable apparatus is an ALV DLS/SLS-5000 spectrometer/goniometer (ALV-Laser GmbH, Langen, Germany). The light source for the experiments is an Argon Ion laser of wavelength 514.5 nm (Coherent, Calif.). Light scattered by the sample is detected at an angle of 90° from the transmitted beam, where the effects of reflection are minimized. The sample cell is placed in a toluene bath maintained at a temperature of 25° C."}},
  "note": "Numbered stars: 1 amine (or outer) side, 2 acyl side, 3 side chain; on linkers, the order of the positions; unused ones are H or OH. Bridge positions count the residues as written; N and C are the ends. Square brackets hold non-standard residues; d marks the D form. Peptide text beside a SMILES is read from it. X1 = CC(C)CCCCCCCCC[C@H](CC(=O)[*:1])O[*:2]",
  "data": [
    {"molecule": "CC(C)CCCCCCCCC[C@@H]1CC(=O)N[C@@H](CCC(=O)O)C(=O)N[C@@H](CC(C)C)C(=O)N[C@H](CC(C)C)C(=O)N[C@@H](C(C)C)C(=O)N[C@@H](CC(=O)O)C(=O)N[C@H](CC(C)C)C(=O)N[C@@H](CC(C)C)C(=O)O1", "note": "[surfactin] (EL[dL]VD[dL]L; linker N-C via X1)", "values": [
      {"measurement": "concentration at which active", "setting": "[1]", "value": 25, "unit": "µM"}
    ]},
    {"molecule": "CCCCCCCCCCCCOS(=O)(=O)[O-].[Na+]", "note": "[SLS, sodium lauryl sulfate]", "values": [
      {"measurement": "inhibition of infectivities of various HSV-1 and HSV-2 strains", "setting": "HSV-1 and HSV-2 strains", "value": "potent inhibitors"},
      {"measurement": "infectivity of HIV-1 to 1G5 cells after pretreatment", "setting": "HIV-1 (strain NL4-3)", "value": "reduced its infectivity"}
    ]},
    {"molecule": "CCO", "note": "[ethanol]", "values": [
      {"measurement": "cell death after exposure (CMFDA staining)", "setting": "NIH 3T3 fibroblasts", "value": "insufficient to cause cell death"}
    ]},
    {"molecule": "CCCCCCCCCCCCCCCC(=O)OC[C@H](COP(=O)([O-])OCC[N+](C)(C)C)OC(=O)CCCCCCCCCCCCCCC", "note": "[DPPC, dipalmitoyl phosphatidyl choline]", "values": [
      {"measurement": "concentration successfully dispersed in ethanol before sedimentation of aggregates", "setting": "[2]", "value": "up to 100 mg/mL"}
    ]}
  ]
}
